# Source: ChEMBL document CHEMBL6083291, “Discovery of Thiochroman Derivatives as Potent, Oral Selective Estrogen Receptor Degraders and Antagonists for the Treatment of Endocrine-Resistant Breast Cancer” (J Med Chem, 2024)
# Columns and labels:
# [1] = tested on: MCF7; experiment: Antiproliferative activity against human MCF7 cells assessed as reduction in cell viability incubated for 6 days by CellTiter-Glo reagent based luminescence analysis
# [2] = molecular target: T1, Estrogen receptor (Homo sapiens, UniProt P03372); experiment: Induction of ER-alpha degradation in human MCF7 cells incubated for 24 hrs by In-Cell Western blot analysis; type: cell-based
# T1 sequence (P03372 whole entry): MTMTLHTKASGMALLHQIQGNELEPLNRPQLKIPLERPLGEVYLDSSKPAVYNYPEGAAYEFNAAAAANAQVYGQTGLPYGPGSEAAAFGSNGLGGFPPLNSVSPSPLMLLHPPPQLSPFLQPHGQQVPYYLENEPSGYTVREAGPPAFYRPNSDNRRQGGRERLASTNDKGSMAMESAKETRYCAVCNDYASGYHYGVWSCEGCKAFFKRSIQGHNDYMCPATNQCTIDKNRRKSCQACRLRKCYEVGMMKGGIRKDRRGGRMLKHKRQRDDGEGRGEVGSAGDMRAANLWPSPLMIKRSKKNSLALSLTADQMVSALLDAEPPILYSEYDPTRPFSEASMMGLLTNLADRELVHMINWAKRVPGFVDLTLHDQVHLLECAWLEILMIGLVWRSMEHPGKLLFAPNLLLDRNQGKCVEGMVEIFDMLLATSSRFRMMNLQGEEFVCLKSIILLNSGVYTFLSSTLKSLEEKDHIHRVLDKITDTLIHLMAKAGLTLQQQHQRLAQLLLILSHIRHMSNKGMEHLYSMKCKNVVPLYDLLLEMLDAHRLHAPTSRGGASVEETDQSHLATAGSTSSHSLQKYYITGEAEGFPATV
# [3] = molecular target: Voltage-gated inwardly rectifying potassium channel KCNH2 (Homo sapiens, UniProt Q12809); experiment: Inhibition of hERG expressed in CHO cells assessed as inhibition of channel current by automated Qpatch clamp analysis
# [4] = Estrogenic like activity in Sprague-Dawley rat assessed as increase in ratio of uterine wet weight to body weight at 60 mg/kg, po qd for 3 days relative to control; type: toxicity, organism-based; conditions: in vivo, 72 h, time 3 day
# [5] = Toxicity in Sprague-Dawley rat assessed as thickened endometrium in uterus at 60 mg/kg, po qd for 3 days by Hematoxylin-Eosin staining based analysis; type: organism-based; conditions: in vivo, 72 h, time 3 day
# [6] = tested on: BT-474; experiment: Antiproliferative activity against human BT-474 cells assessed as reduction in cell viability
# [7] = tested on: T47D; experiment: Antiproliferative activity against human T47D cells assessed as reduction in cell viability
# [8] = tested on: CAMA-1; experiment: Antiproliferative activity against human CAMA-1 cells assessed as reduction in cell viability
# [9] = tested on: MDA-MB-361; experiment: Antiproliferative activity against human MDA-MB-361 cells assessed as reduction in cell viability
# [10] = tested on: MCF7; experiment: Antiproliferative activity against human MCF7 cells harboring ER-alpha Y537S mutant assessed as inhibition of cell growth
# [11] = Antiproliferative activity against endocrine-resistant human MCF7 Tam1 cells assessed as inhibition of cell growth; conditions: Tamoxifen-resistant MCF7
# [12] = molecular target: T1, Estrogen receptor; type: cell-based, HEK293
# [13] = Antagonist activity at ER-alpha Y537S mutant (unknown origin) expressed in human MCF7 cells assessed as inhibition of ER-alpha transcription by immunofluorescence assay
# [14] = Estrogenic like activity in Sprague-Dawley rat assessed as increase in ratio of uterine wet weight to body weight at 0.1 mg/kg, po qd for 3 days relative to control; type: toxicity, organism-based; conditions: in vivo, 72 h, time 3 day
# [15] = Toxicity in Sprague-Dawley rat assessed as thickened endometrium in uterus at 0.1 mg/kg, po qd for 3 days by Hematoxylin-Eosin staining based analysis; type: organism-based; conditions: in vivo, 72 h, time 3 day
# [16] = Antagonist activity at ER-alpha D538G mutant (unknown origin) expressed in human MCF7 cells assessed as inhibition of ER-alpha transcription by immunofluorescence assay
# Voltage-gated inwardly rectifying potassium channel KCNH2, sequence (Q12809 whole entry): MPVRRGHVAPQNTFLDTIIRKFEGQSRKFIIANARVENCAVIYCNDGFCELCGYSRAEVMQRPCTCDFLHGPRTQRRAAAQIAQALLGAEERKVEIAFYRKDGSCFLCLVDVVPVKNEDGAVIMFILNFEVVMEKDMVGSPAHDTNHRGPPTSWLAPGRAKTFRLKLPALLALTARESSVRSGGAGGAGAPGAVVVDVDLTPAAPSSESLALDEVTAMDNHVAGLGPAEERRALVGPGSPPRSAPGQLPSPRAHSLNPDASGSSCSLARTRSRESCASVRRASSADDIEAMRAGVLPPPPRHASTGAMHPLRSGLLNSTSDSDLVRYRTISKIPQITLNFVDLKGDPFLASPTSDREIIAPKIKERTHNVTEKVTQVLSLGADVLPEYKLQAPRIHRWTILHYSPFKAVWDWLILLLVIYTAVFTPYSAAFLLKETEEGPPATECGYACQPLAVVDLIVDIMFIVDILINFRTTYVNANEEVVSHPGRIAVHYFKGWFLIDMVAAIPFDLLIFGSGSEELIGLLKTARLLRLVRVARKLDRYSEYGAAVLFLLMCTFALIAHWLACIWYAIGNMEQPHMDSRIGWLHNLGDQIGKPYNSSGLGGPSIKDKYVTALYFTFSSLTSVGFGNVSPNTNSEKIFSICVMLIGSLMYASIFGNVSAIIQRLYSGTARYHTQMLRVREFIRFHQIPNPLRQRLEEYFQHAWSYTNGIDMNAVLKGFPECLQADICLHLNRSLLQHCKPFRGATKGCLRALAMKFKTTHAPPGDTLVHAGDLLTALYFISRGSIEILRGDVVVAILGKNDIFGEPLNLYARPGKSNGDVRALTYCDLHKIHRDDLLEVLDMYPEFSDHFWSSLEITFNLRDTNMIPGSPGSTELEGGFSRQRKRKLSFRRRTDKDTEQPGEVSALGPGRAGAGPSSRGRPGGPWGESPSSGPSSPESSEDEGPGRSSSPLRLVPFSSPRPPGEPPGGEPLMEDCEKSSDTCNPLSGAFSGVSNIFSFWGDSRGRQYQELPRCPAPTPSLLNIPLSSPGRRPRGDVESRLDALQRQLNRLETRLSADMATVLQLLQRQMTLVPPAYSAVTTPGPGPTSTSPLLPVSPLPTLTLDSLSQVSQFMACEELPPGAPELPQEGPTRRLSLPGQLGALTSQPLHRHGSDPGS
structure (smiles),measurement,setting,value
Oc1ccc2c(c1)OC[C@H](c1ccc(F)cc1F)[C@@H]2c1ccc(NCCN2CC(CF)C2)cc1 (racemic),IC50,"[1]; Homo sapiens, MCF7, 144 h",9.3 nM
same,DC50,[2],1.7 nM
COc1ccc([C@H]2COc3cc(O)ccc3[C@H]2c2ccc(OCCN3CC(CF)C3)cc2)cn1 (racemic),IC50,"[1]; Homo sapiens, MCF7, 144 h",0.86 nM
Oc1ccc2c(c1)SC[C@H](c1ccc(F)cc1F)[C@@H]2c1ccc(OCCN2CC(CF)C2)cc1 (racemic),IC50,"[1]; Homo sapiens, MCF7, 144 h",0.6 nM
same,IC50,[3],13000 nM
CC/C(=C(\c1ccc(O)cc1)c1ccc(OCCN(C)C)cc1)c1ccccc1 [AFIMOXIFENE],fold change (FC),[4],2
same,Activity,[5],Toxic
Oc1ccc2c(c1)OC[C@H](c1ccc(F)cc1F)[C@@H]2c1ccc(NC2CN(CCCF)C2)cc1 (racemic),IC50,"[1]; Homo sapiens, MCF7, 144 h",3.1 nM
same,DC50,[2],1 nM
same,IC50,[3],3600 nM
Oc1ccc2c(c1)OC[C@H](c1ccc(F)cc1F)[C@@H]2c1ccc(OCCN2CC(CF)C2)nc1 (racemic),IC50,"[1]; Homo sapiens, MCF7, 144 h",1.7 nM
Oc1ccc2c(c1)SC[C@H](c1cc(F)c(F)cc1F)[C@@H]2c1ccc(OCCN2CC(CF)C2)cc1 (racemic),IC50,"[1]; Homo sapiens, MCF7, 144 h",0.4 nM
Oc1ccc2c(c1)OC[C@H](c1cc(F)c(F)cc1F)[C@@H]2c1ccc(OCCN2CC(CF)C2)cc1 (racemic),IC50,[3],2800 nM
Oc1ccc2c(c1)SC[C@H](c1cc(F)c(F)cc1F)[C@@H]2c1ccc(OCCN2CC(CF)C2)cc1,IC50,[6],4 nM
same,IC50,[7],4 nM
same,IC50,[1]; mcf7,0.25 nM
same,IC50,[8],4 nM
same,IC50,[9],~15 nM
COc1cc(F)ccc1[C@H]1CSc2cc(O)ccc2[C@H]1c1ccc(OCCN2CC(CF)C2)cc1 (racemic),IC50,[1]; mcf7,0.6 nM
same,IC50,[3],> 40000 nM
C[C@@H]1Cc2c(ccc3[nH]ncc23)[C@@H](c2ccc(NC3CN(CCCF)C3)cn2)N1CC(F)(F)F [CAMIZESTRANT],IC50,"[1]; Homo sapiens, MCF7, 144 h",0.68 nM
same,IC50,[10],21.2 nM
COc1cc(F)ccc1[C@H]1CSc2cc(O)ccc2[C@H]1c1ccc(NC2CN(CCCF)C2)cc1 (racemic),IC50,"[1]; Homo sapiens, MCF7, 144 h",0.9 nM
same,IC50,[3],22000 nM
Cn1cc([C@H]2COc3cc(O)ccc3[C@H]2c2ccc(OCCN3CC(CF)C3)cc2)cn1 (racemic),IC50,"[1]; Homo sapiens, MCF7, 144 h",38 nM
same,DC50,[2],98 nM
CC(=O)N1CCC([C@H]2COc3cc(O)ccc3[C@H]2c2ccc(OCCN3CC(CF)C3)cc2)CC1 (racemic),IC50,"[1]; Homo sapiens, MCF7, 144 h",9.5 nM
same,DC50,[2],24 nM
N#Cc1cc(F)ccc1[C@H]1COc2cc(O)ccc2[C@H]1c1ccc(OCCN2CC(CF)C2)cc1 (racemic),IC50,"[1]; Homo sapiens, MCF7, 144 h",4.9 nM
COc1cc(F)ccc1[C@H]1CS(=O)(=O)c2cc(O)ccc2[C@H]1c1ccc(OCCN2CC(CF)C2)cc1 (racemic),IC50,"[1]; Homo sapiens, MCF7, 144 h",1.6 nM
same,IC50,[3],> 40000 nM
COc1cc(F)ccc1[C@H]1CSc2cc(O)ccc2[C@H]1c1ccc(OCCN2CC(CF)C2)c(F)c1 (racemic),IC50,"[1]; Homo sapiens, MCF7, 144 h",0.7 nM
same,IC50,[3],> 40000 nM
COc1cc(F)ccc1[C@H]1CSc2cc(C(=O)O)ccc2[C@H]1c1ccc(OCCN2CC(CF)C2)cc1 (racemic),IC50,"[1]; Homo sapiens, MCF7, 144 h",1.7 nM
same,DC50,[2],9.6 nM
CS(=O)(=O)N1CCC([C@H]2COc3cc(O)ccc3[C@H]2c2ccc(OCCN3CC(CF)C3)cc2)CC1 (racemic),IC50,"[1]; Homo sapiens, MCF7, 144 h",6.2 nM
same,DC50,[2],8.8 nM
COc1cc(F)ccc1[C@H]1CSc2c(ccc3[nH]ncc23)[C@H]1c1ccc(OCCN2CC(CF)C2)cc1 (racemic),IC50,"[1]; Homo sapiens, MCF7, 144 h",7.4 nM
same,DC50,[2],6.3 nM
COc1ccc([C@H]2CSc3cc(O)ccc3[C@H]2c2ccc(OCCN3CC(CF)C3)cc2)c(F)c1 (racemic),IC50,"[1]; Homo sapiens, MCF7, 144 h",0.4 nM
Oc1ccc2c(c1)OC[C@H](c1ccc(F)cc1F)[C@@H]2c1ccc(OC2CN(CCCF)C2)cc1 (racemic),IC50,"[1]; Homo sapiens, MCF7, 144 h",7.7 nM
same,DC50,[2],2.8 nM
Oc1ccc2c(c1)OC[C@H](c1ccc(Cl)cc1F)[C@@H]2c1ccc(OCCN2CC(CF)C2)cc1 (racemic),IC50,"[1]; Homo sapiens, MCF7, 144 h",4.2 nM
Cc1cc(F)ccc1[C@H]1CSc2cc(O)ccc2[C@H]1c1ccc(OCCN2CC(CF)C2)cc1 (racemic),IC50,"[1]; Homo sapiens, MCF7, 144 h",0.8 nM
O=C(CN1CC(CF)C1)Nc1ccc([C@@H]2c3ccc(O)cc3OC[C@@H]2c2ccc(F)cc2F)cc1 (racemic),IC50,"[1]; Homo sapiens, MCF7, 144 h",243 nM
O=C1CC[C@H](N2Cc3cc(N4CCN(CC5CCN(c6ccc([C@@H]7c8ccc(O)cc8CC[C@@H]7c7ccccc7)cc6)CC5)CC4)ccc3C2=O)C(=O)N1 [VEPDEGESTRANT],IC50,"[1]; Homo sapiens, MCF7, 144 h",2.7 nM
same,IC50,[10],133 nM
same,IC50,[11],2.12 nM
COc1cc(F)ccc1[C@H]1COc2cc(O)ccc2[C@H]1c1ccc(OCCN2CC(CF)C2)cc1 (racemic),IC50,"[1]; Homo sapiens, MCF7, 144 h",0.56 nM
same,IC50,[3],4800 nM
Oc1ccc2c(c1)SC[C@@H](c1cc(F)c(F)cc1F)[C@H]2c1ccc(OCCN2CC(CF)C2)cc1,IC50,"[1]; Homo sapiens, MCF7, 144 h",714 nM
Oc1ccc2c(c1)OCC(c1ccc(F)cc1F)=C2c1ccc(OCCN2CC(CF)C2)cc1,IC50,"[1]; Homo sapiens, MCF7, 144 h",58 nM
Oc1ccc2c(c1)OC[C@H](c1ccc(F)cc1F)[C@@H]2c1ccc(O[C@H]2CCN(CCCF)C2)cc1 (racemic),IC50,"[1]; Homo sapiens, MCF7, 144 h",7.7 nM
COc1cc(F)ccc1[C@@H]1CSc2cc(O)ccc2[C@@H]1c1ccc(OCCN2CC(CF)C2)cc1,IC50,"[1]; Homo sapiens, MCF7, 144 h",25 nM
Oc1ccc2c(c1)OC[C@H](C1CCOCC1)[C@@H]2c1ccc(OCCN2CC(CF)C2)cc1 (racemic),IC50,"[1]; Homo sapiens, MCF7, 144 h",1.6 nM
Oc1ccc2c(c1)OC[C@H](c1ccc(F)cc1F)[C@@H]2c1ccc(OCCN2CC(CF)C2)cc1F (racemic),IC50,[3],5400 nM
C[C@@H]1Cc2c([nH]c3ccccc23)[C@@H](c2c(F)cc(NC3CN(CCCF)C3)cc2F)N1CC(F)(F)CO [GIREDESTRANT],IC50,"[1]; Homo sapiens, MCF7, 144 h",0.2 nM
same,DC50,[2],0.3 nM
same,IC50,[10],6.77 nM
same,IC50,[11],1.22 nM
same,IC50,[12],0.43 nM
Oc1ccc2c(c1)CCC[C@H](c1ccc(F)cc1F)[C@@H]2c1ccc(OCCN2CC(CF)C2)cc1 (racemic),IC50,"[1]; Homo sapiens, MCF7, 144 h",19 nM
same,DC50,[2],22.7 nM
same,IC50,[3],> 40000 nM
O=C(O)c1ccc2c(c1)CCCC(c1ccc(Cl)cc1Cl)=C2c1ccc(O[C@H]2CCN(CCCF)C2)cc1 [AMCENESTRANT],IC50,[13],57.5 nM
same,IC50,"[1]; Homo sapiens, MCF7, 144 h",3.9 nM
Oc1ccc2c(c1)OC[C@H](c1ccc(F)cc1F)[C@@H]2c1ccc(OCCN2CC(CF)C2)c(F)c1 (racemic),IC50,[3],6400 nM
COc1ccc([C@H]2COc3cc(O)ccc3[C@H]2c2ccc(OCCN3CC(CF)C3)cc2)c(F)c1 (racemic),IC50,"[1]; Homo sapiens, MCF7, 144 h",0.87 nM
same,IC50,[3],3500 nM
COc1cc([C@@H]2c3ccc(O)cc3OC[C@@H]2c2ccc(F)cc2F)ccc1OCCN1CC(CF)C1 (racemic),IC50,"[1]; Homo sapiens, MCF7, 144 h",4.8 nM
same,DC50,[2],4.5 nM
C#C[C@]1(O)CC[C@H]2[C@@H]3CCc4cc(O)ccc4[C@H]3CC[C@@]21C [ETHINYL ESTRADIOL],fold change (FC),[14],3
same,Activity,[15],Toxic
C[C@]12CC[C@@H]3c4ccc(O)cc4C[C@@H](CCCCCCCCC[S+]([O-])CCCC(F)(F)C(F)(F)F)[C@H]3[C@@H]1CC[C@@H]2O (some centres not stated) [FULVESTRANT],IC50,[13],13.3 nM
same,IC50,[16],15.3 nM
CC1(C)C[C@H](c2ccc(F)cc2F)[C@H](c2ccc(OCCN3CC(CF)C3)cc2)c2ccc(O)cc21 (racemic),IC50,"[1]; Homo sapiens, MCF7, 144 h",8.8 nM
Oc1ccc2c(c1)OCC[C@H](c1ccc(F)cc1F)[C@@H]2c1ccc(OCCN2CC(CF)C2)cc1 (racemic),IC50,"[1]; Homo sapiens, MCF7, 144 h",47 nM
FCC1CN(CCOc2ccc([C@@H]3c4ccc5[nH]ncc5c4SC[C@@H]3c3cc(F)c(F)cc3F)cc2)C1 (racemic),IC50,"[1]; Homo sapiens, MCF7, 144 h",5.8 nM
same,DC50,[2],6.6 nM
Oc1ccc2c(c1)OC[C@H](c1ccc(F)cc1F)[C@@H]2c1cc(F)c(OCCN2CC(CF)C2)c(F)c1 (racemic),IC50,"[1]; Homo sapiens, MCF7, 144 h",1.4 nM
same,IC50,[3],1900 nM
Oc1ccc2c(c1)OC[C@H](c1ccc(F)cc1F)[C@@H]2c1ccc(OCCN2CC(CF)C2)cc1 (racemic),IC50,"[1]; Homo sapiens, MCF7, 144 h",1.2 nM
